Experimental data from patent publication US8053585B2, “Protecting group for carboxylic acids that can be photolyzed by visible light” (Cornell Research Foundation, Inc., priority 2006, dated 2011).
“Also recorded” adds a separate entry of the source.

Target: T1, α1-subunit of the human glycine receptor (Homo sapiens, UniProt P23415)
T1 construct: expressed in transfected cells; host or cells: HEK 293 cells, transiently transfected (Polyfect), co-transfected with GFP plasmid as marker; cDNA from Prof; H. Betz
T1 sequence (P23415 29-457): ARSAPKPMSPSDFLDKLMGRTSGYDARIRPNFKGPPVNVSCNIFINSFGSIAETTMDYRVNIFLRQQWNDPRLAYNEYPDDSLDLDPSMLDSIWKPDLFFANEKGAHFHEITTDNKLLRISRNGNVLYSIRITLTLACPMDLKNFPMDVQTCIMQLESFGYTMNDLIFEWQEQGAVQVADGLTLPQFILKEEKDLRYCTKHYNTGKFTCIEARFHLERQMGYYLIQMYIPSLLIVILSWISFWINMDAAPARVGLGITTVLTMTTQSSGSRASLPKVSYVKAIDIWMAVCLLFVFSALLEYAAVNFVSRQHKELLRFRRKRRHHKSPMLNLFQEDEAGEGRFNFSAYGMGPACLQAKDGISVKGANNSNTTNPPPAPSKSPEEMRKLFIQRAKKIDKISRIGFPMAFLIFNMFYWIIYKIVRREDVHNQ
Assay: Whole-cell current recording with cell-flow method, HEK 293 cells expressing glycine receptor
Assay type: cell-based
Excerpt: In whole-cell current recording experiments with DECM-caged glutamate, HEK 293 cells stably transfected with cDNA encoding the GluR6 were used. In whole-cell current recording experiments with DECM-caged glycine, HEK 293 cells were transiently transfected with the cDNA of the α1-subunit of the human glycine receptor by using the Polyfect™ transfection reagent (Qiagen GmbH, D-40724, Hilden, Germany). The cDNA of the α1-subunit was kindly provided by Professor H. Betz (Max-Plank-Institute for brain Research, Frankfurt, Germany). The cells were co-transfected with cDNA encoding the green fluorescent protein (pGreen Lantern plasmid, Life Technologies, Gaitherberg, Md.) to detect transfected cells (Chalfie et al., “Green Fluorescent Protein as a Marker for Gene Expression,” Science 263:802-805 (1994), which is hereby incorporated by reference in its entirety).
The cells were used for electrophysiological experiments between 24 and 72 h after each passage. Whole-cell currents evoked by glutamate or glycine (100 μM) were recorded using the whole-cell configuration (Hamill et al., “Improved Patch-Clamp Techniques for High-Resolution Current Recording From Cells and Cell-Free Membrane Patches,” Pfluegers Arch 391:85-100 (1981), which is hereby incorporated by reference in its entirety) at room temperature, −60 mV, and pH 7.4. […]

Compound: CCN(CC)c1ccc2c(COC(=O)CN)cc(=O)oc2c1 [DECM-caged glycine, (7-N,N-Diethylaminocoumarin-4-yl)-methyl-glycine-trifluoroacetate]
- whole-cell current evoked by 100 μM glycine, presence vs absence of compound (2 mM DECM-caged glycine (FIG. 10 legend), −60 mV, pH 7.4, 22° C.): does not inhibit
- biological activity at glycine receptors (inhibition or activation) (HEK293 cells expressing glycine receptors): biologically inert; also recorded: neither DECM-caged glycine nor its byproducts inhibited or activated the glycine receptors
